From publication PMC3514547 (Biochemistry, 2012)
“And” between values parts separate entries of the source, which are not always exact repeats. Equal entries are not always repeated. Where two headings read alike, the source gives them in different places.

How the values were obtained:
[1] = biological target: T1, SpPot1-DBD binding to d(GGTTACGGTTAC) (Schizosaccharomyces pombe, UniProt O13988); experiment: Double filter-binding competition assay, SpPot1-DBD/cognate ssDNA
T1 sequence (O13988 1-389 limits assumed): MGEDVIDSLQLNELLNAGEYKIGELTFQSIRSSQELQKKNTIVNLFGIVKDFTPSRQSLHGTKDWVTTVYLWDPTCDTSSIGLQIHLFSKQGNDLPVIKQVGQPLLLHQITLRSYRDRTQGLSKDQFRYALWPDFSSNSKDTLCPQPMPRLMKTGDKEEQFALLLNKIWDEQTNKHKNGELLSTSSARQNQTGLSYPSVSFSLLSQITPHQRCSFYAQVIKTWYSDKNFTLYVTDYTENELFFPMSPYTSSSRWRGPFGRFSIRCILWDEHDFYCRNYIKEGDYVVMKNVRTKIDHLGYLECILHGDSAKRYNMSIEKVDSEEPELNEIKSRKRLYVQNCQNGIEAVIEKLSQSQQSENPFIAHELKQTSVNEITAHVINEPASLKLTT

[2] = biological target: T2, hPOT1-DBD binding to d(GGTTAGGGTTAG) (Homo sapiens, UniProt Q9NUX5); experiment: Double filter-binding competition assay, hPOT1-DBD/telomeric ssDNA
T2 sequence (Q9NUX5 1-299): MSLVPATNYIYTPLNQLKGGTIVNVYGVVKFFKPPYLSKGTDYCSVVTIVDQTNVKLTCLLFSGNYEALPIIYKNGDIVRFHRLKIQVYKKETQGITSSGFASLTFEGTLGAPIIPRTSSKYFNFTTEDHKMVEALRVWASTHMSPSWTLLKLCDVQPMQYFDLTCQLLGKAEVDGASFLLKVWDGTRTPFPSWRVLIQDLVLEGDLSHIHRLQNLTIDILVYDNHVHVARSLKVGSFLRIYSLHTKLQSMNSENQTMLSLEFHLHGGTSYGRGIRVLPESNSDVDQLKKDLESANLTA

[3] = biological target: T3, Pot1pN binding to 6mer ssDNA (Schizosaccharomyces pombe, UniProt O13988); experiment: Secondary double filter-binding assay, Pot1pN/6mer; conditions: compound up to 500 μM
T3 sequence (O13988 1-187 limits assumed): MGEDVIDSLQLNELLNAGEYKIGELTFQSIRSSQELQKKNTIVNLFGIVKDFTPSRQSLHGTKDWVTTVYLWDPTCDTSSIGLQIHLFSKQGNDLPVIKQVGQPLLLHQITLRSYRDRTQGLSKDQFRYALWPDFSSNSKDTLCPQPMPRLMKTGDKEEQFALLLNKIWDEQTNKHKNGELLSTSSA

Pot1pN = biological target: T4, Pot1pN (Schizosaccharomyces pombe, UniProt O13988); experiment: Dynamic light scattering of Pot1pN/CR complex; conditions: DLS, equimolar CR 300 μM
T4 sequence (O13988 1-187 limits assumed): T3 sequence (O13988 1-187 limits assumed)

CR solubility at NMR pH = assay type: physicochemical
[4] = cited from earlier work
[5] = system: cell culture and animal models; conditions: high doses (~ 100 μM); cited from earlier work
germ cells = conditions: prenatal administration during germ cell development, mice; cited from earlier work
amyloidosis phenotypes = conditions: low doses (≤ 10 μM); cited from earlier work
[6] = biological target: T5, Pot1pN (first DNA-binding OB fold of S. pombe Pot1) (Schizosaccharomyces pombe, UniProt O13988); experiment: ITC of ligand binding to Pot1pN; conditions: for -TΔS / ΔH / Kd: ITC, 20 °C; for Kd: one-site binding model
[7] = biological target: T5, Pot1pN (first DNA-binding OB fold of S. pombe Pot1); conditions: read-out: KD of Pot1pN/6mer interaction; cognate ssDNA ligand; cited from earlier work
SpPot1-DBD (Pot1-DBD) = biological target: T6, SpPot1-DBD (Pot1-DBD) (Schizosaccharomyces pombe, UniProt O13988 1-389); experiment: double-filter binding
T6 sequence: T1 sequence (O13988 1-389 limits assumed)

6xHis-Pot1pN (TR-FRET) = biological target: T7, 6xHis-Pot1pN (TR-FRET) (Schizosaccharomyces pombe, UniProt O13988 1-187); experiment: TR-FRET
T7 sequence: T3 sequence (O13988 1-187 limits assumed)

[8] = biological target: T8, Pot1pN (first OB fold of SpPot1) (Schizosaccharomyces pombe, UniProt O13988 1-187); experiment: double-filter binding
T8 sequence: T3 sequence (O13988 1-187 limits assumed)

hPOT1 (hPOT1-DBD) = biological target: T9, hPOT1 (hPOT1-DBD) (human, UniProt Q9NUX5 1-299); experiment: double-filter binding
T9 sequence: T2 sequence (Q9NUX5 1-299)

Molecule: Nc1c(/N=N/c2ccc(-c3ccc(/N=N/c4cc(S(=O)(=O)O)c5ccccc5c4N)cc3)cc2)cc(S(=O)(=O)O)c2ccccc12 [CR, Congo red]
- IC50 [1]: 112 ± 9 µM
- IC50 [2]: 130 ± 17 µM
- inhibition of Pot1pN binding to 6mer [3]: functionally inhibited Pot1pN binding to 6mer
- calculated radius of Pot1pN/CR species (Pot1pN): 3.8 nm
- calculated MW of Pot1pN/CR species (Pot1pN; consistent with 3:3 trimer complex): 77 kDa
- solubility behaviour at pH 6.15 (CR solubility at NMR pH): precipitates from solution
- aggregation point [4]: 50 µM
- toxicity [5]: toxic
- effect on germ cell number (germ cells): drastic and permanent reduction in germ cell number
- effect on amyloidosis phenotypes and cell survival (amyloidosis phenotypes): rescue amyloidosis phenotypes and prolong cell survival
- binding stoichiometry (n) ([6]; ITC forward titration, one-site model): 1.07 ± 0.02
- -TΔS [6]: 1.4 ± 0.2 kcal/mol
- ΔH [6]: -9.7 ± 0.2 kcal/mol
- Kd [6]: 0.7 ± 0.01 µM

Molecule: Cc1cc(-c2ccc(/N=N/c3c(S(=O)(=O)O)cc4cc(S(=O)(=O)O)cc(N)c4c3O)c(C)c2)ccc1/N=N/c1c(S(=O)(=O)O)cc2cc(S(=O)(=O)O)cc(N)c2c1O [TB, Trypan blue]
- -TΔS [6]: 5.7 ± 0.02 kcal/mol
- ΔH [6]: -13.6 ± 0.004 kcal/mol
- Kd [6]: 1.21 µM and 1.2 µM

Molecule: Cc1ccc2c(c1)sc(-c1ccc(N(C)C)cc1)[n+]2C [Thioflavin T]
- inhibition of Pot1pN binding to 6mer [3]: no effect
- binding to Pot1pN by ITC ([6]; 2 mM Thioflavin T titrated into Pot1pN, single replicate): no detectable binding

Molecule: d(GGTTAC) [6mer]
- Kd [7]: 0.03 µM

B1: d(GGTTACGGTTAC) (ssDNA)
DNA: GGTTACGGTTAC
- binding result (SpPot1-DBD (Pot1-DBD)): binds

B2: biotin-d(TAAGGTTAC) (ssDNA)
DNA: TAAGGTTAC
modifications: 5' biotin (printed as biotin-conjugated threonine), 3-nt TAA linker
- binding result (6xHis-Pot1pN (TR-FRET)): binds

B3: 6mer (ssDNA)
DNA: GGTTAC
- binding result [8]: binds

B4: d(GGTTAGGGTTAG) (ssDNA)
DNA: GGTTAGGGTTAG
- binding result (hPOT1 (hPOT1-DBD)): binds
